Data taken from patent US6764829B2, “Nucleoside hydrolase and nucleoside phosphorylase detection kits, dipsticks and substrates” (Albert Einstein College of Medicine of Yeshiva University, priority 1996, dated 2004).
Read-outs that look alike come from different tables or passages of the source.

Experiments:
IAG-nucleoside hydrolase = biological target: T1, IAG-nucleoside hydrolase (Trypanosoma brucei, UniProt Q57ZL6); test: Comparison of β-D-ribofuranoside substrates with IAG-nucleoside hydrolase (Table 3); type: biochemical; settings: for IAG NH rate: at 200 μM substrate
T1 sequence (Q57ZL6 1-327): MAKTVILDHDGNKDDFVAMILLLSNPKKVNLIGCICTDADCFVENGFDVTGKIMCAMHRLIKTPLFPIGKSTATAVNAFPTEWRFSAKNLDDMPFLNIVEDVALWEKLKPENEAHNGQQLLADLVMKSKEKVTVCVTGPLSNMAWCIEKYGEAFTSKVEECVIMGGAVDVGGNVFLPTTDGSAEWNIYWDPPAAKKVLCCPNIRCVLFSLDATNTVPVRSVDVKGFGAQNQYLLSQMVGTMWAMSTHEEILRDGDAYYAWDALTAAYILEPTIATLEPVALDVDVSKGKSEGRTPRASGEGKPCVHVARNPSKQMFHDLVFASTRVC
Method: (§1) The enzymes used were highly purified samples from Crithidia fasciculata (IU-nucleoside hydrolase) and Trypanosoma brucei brucei (IAG-nucleoside hydrolase), available as stock solutions of approximately 20 mg protein/mL.
(§2) Each reaction was conducted in a quartz cuvette with a 1 cm path length, placed in the observation chamber of a UV spectrophotometer, and in a total reaction volume of 600 μL. The temperature was adjusted by use of a circulating water bath, set so that the cuvette temperature equilibrated to 30° C. in about 5 minutes.
(§3) The β-D-ribofuranoside substrates were dissolved in aqueous buffer: 50 mM CHES for reactions at pH 10, 50 mM HEPES for reactions at pH 8. […] For the remaining reactions catalysed by IAG hydrolase, a single substrate concentration of between 100 and 300 μM was used.
(§4) The absorbance of each reaction mixture was monitored at or near the absorption maximum for the phenolic aglycon (as shown in Table 3). Monitoring began 5-10 minutes before the enzyme was added to determine if the substrate was stable under the reaction conditions.
(§5) Data were fitted to the Michaelis-Menton equation using kaleidagraph, and the resulting kinetic parameters along with other relevant data are summarized in Table 3.

IU-nucleoside hydrolase = biological target: T2, IU-nucleoside hydrolase (Crithidia fasciculata, UniProt Q27546); test: Comparison of β-D-ribofuranoside substrates with IU-nucleoside hydrolase (Table 3); type: biochemical; settings: for Km: read-out: IU NH Km
T2 sequence (Q27546 1-315): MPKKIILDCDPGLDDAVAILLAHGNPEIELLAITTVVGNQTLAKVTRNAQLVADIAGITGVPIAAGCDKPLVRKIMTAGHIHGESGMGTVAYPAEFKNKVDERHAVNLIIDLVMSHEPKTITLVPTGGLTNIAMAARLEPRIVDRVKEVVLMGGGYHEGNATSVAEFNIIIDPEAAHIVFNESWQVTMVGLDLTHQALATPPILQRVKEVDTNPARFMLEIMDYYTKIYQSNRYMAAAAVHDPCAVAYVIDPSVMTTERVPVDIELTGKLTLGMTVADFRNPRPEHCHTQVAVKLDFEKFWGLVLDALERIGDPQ
Method: as §1, §2, §3, §4, §5

T. vaginalis = test: Hydrolysis of substrates by T. vaginalis extract; type: biochemical; settings: Triton X-100 extract; determined as in Example 24
Method: T. vaginalis was grown for 2 days in TYM medium, harvested, and washed. […] The ability of the extract to hydrolyse substrates was determined as in Example 24. For 4-nitrophenyl β-D-ribofuranoside, the activity was 165 nmoles.min^−1 per 10^8 cells, corresponding to an activity for the enzyme of 9 nmoles.min^−1.(mg protein)^−1. For 4-pyridyl β-D-ribofuranoside, the activity was 74 nmoles.min^−1 per […] corresponding to an activity for the enzyme of 4 nmoles.min^−1.(mg protein)^−1.

[1] = tested on: Giardia intestinalis (Portland 1 strain); test: Hydrolysis of substrates by Giardia intestinalis supernatants; type: biochemical; settings: 0.24 mM substrate, 50 mM HEPES pH 8
Method: Giardia intestinalis (Portland 1 strain) was grown for 2 days in TYI-33 medium supplemented with 5 mM arginine, harvested and washed. A suspension containing 2.91×10^8 cells of Giardia intestinalis in 1 mL of aqueous HEPES buffer (40 mM. pH 7) was mixed with 1 mL of aqueous HEPES buffer (40 mM, pH 7) containing 0.1 mM protease inhibitor E-64 and sonicated (Branson sonicator, duty cycle 40, output 2.5), for 2-3 min in ice. The suspension was then centrifuged in a Beckman microfuge for 10 mins at 4° C., and the supernatant decanted.
A second suspension of 2.91×10^8 cells of Giardia intestinalis in 1 mL of aqueous HEPES buffer (40 mM, pH 7) was mixed with 1 mL of 0.5% aqueous Triton X-100, left at 4° C. overnight, and the supernatant was decanted.
Aliquots (between 2 and 100 μL) of each of these supernatants were made up to a volume of 1 mL of water containing 50 mM HEPES buffer at pH 8, 0.24 mM 4-nitrophenyl β-D-ribofuranoside or 4-pyridyl β-D-ribofuranoside. The release of the aglycon was monitored by absorption spectrometry at 400 nm or 253 nm, respectively.
Protein was determined by Lowry method (ie Folin reaction).

AMP nucleosidase = AMP nucleosidase (Escherichia coli, UniProt P0AE12); test: Kinetic parameters with nitrophenylriboside 5-phosphate and purine substrate (Table 1); type: biochemical, E coli
Description: (§6) In this Example kinetic parameters for different enzymes were compared using nitrophenylriboside or a purine substrate. […] The E. coli and bovine spleen enzymes tested were ineffective in hydrolysing the substrate. The striking ability of one of the protozoan parasite enzymes to hydrolyse the substrate provides the basis for an assay for the protozoan parasites (see Example 22).

[2] = substrate: O=[N+]([O-])c1ccc(O[C@@H]2O[C@H](CO)[C@@H](O)[C@H]2O)cc1; test: Comparison of β-D-ribofuranoside substrates with IAG-nucleoside hydrolase (Table 3); type: biochemical, Trypanosoma brucei brucei; settings: other: At pH 10, 30.0 °C
Method: as §1, §2, §3, §4, §5

[3] = substrate: OC[C@H]1O[C@@H](Oc2ccncc2)[C@H](O)[C@@H]1O; test: as above; type: biochemical, Trypanosoma brucei brucei; settings: other: At pH 10, 30.0 °C
Method: as §1, §2, §3, §4, §5

[4] = substrate: O=[N+]([O-])c1ccc(O[C@@H]2O[C@H](CO)[C@@H](O)[C@H]2O)cc1; test: Kinetic parameters with nitrophenylriboside and purine substrate (Table 1); type: biochemical, Trypanosoma brucei brucei; settings: other: nitrophenylriboside as substrate, pH 8.0 in 50 mM HEPES, 30° C.
Description: as §6

[5] = substrate: O=[N+]([O-])c1ccc(O[C@@H]2O[C@H](CO)[C@@H](O)[C@H]2O)cc1; test: Kinetic parameters (phosphorolysis) with nitrophenylriboside and purine substrate (Table 1); type: biochemical, bovine; settings: other: nitrophenylriboside as substrate, pH 8.0 in 50 mM HEPES, 30° C., 3 mM phosphate
Description: as §6

[6] = nitrophenylriboside 5-phosphate as substrate, pH 8.0 in 50 mM HEPES, 30° C., MgATP 100 μM

Chain of AMP nucleosidase (P0AE12 whole entry): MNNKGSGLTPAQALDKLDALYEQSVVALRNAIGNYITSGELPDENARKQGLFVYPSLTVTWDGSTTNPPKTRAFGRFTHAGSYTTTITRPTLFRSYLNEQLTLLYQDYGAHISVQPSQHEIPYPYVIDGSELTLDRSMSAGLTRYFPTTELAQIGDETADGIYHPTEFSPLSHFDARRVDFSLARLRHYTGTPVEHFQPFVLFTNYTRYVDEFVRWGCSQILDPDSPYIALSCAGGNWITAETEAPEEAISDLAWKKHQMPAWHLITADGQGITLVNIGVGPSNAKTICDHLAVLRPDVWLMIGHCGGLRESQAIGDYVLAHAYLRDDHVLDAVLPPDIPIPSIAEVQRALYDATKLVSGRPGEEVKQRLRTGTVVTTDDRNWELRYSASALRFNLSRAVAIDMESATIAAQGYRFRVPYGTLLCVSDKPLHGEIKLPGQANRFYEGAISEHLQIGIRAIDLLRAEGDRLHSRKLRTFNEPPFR

OC[C@H]1O[C@@H](Oc2cccc3ccccc23)[C@H](O)[C@@H]1O [Example 2, α-naphthyl β-D-ribofuranoside]
IAG NH rate (IAG-nucleoside hydrolase; pH 10.0): <0.05 min⁻¹
Ki (IU-nucleoside hydrolase): 7.3 µM
IU NH kcat (IU-nucleoside hydrolase; At pH 10, at 250 μM): .009 s⁻¹

O=C(Nc1cccc(O[C@@H]2O[C@H](CO)[C@@H](O)[C@H]2O)c1)C(F)(F)F [Example 3, 3-trifluoroacetamidophenyl β-D-ribofuranoside]
Ki (IU-nucleoside hydrolase): 27.7 µM

Nc1cccc(O[C@@H]2O[C@H](CO)[C@@H](O)[C@H]2O)c1 [Example 4, 3-aminophenyl β-D-ribofuranoside]
IAG NH rate (IAG-nucleoside hydrolase; pH 10.0): <0.02 min⁻¹
Ki (IU-nucleoside hydrolase): 72 µM
IU NH kcat (IU-nucleoside hydrolase; At pH 10, at 1240 μM): 0.7 s⁻¹

O=C1CCCc2c(O[C@@H]3O[C@H](CO)[C@@H](O)[C@H]3O)cccc21 [Example 5, 1-tetralone-5-yl β-D-ribofuranoside]
IAG NH rate (IAG-nucleoside hydrolase; pH 8.0): <0.01 min⁻¹
IAG NH rate (IAG-nucleoside hydrolase; pH 10.0): <0.01 min⁻¹
IU NH kcat (IU-nucleoside hydrolase; At pH 10, at 200 μM): 0.5 s⁻¹

Nc1ccc(O[C@@H]2O[C@H](CO)[C@@H](O)[C@H]2O)cc1 [Example 6, p-aminophenyl β-D-ribofuranoside]
IU NH kcat (IU-nucleoside hydrolase; At pH 10, 30° C.): <0.01 s⁻¹

O=C1OC(c2ccc(O)cc2)(c2ccc(O[C@@H]3O[C@H](CO)[C@@H](O)[C@H]3O)cc2)c2ccccc21 (stereo partly drawn) [Example 7, 3-(4-hydroxyphenyl)-1(3H)-isobenzofuranone-3-(phen-4-yl) β-D-ribofuranoside]
IAG NH rate (IAG-nucleoside hydrolase; pH 8.0): <0.01 min⁻¹
IAG NH rate (IAG-nucleoside hydrolase; pH 10.0): <0.01 min⁻¹
IU NH kcat (IU-nucleoside hydrolase; At pH 10, at 200 μM): 10 at sec^−1

O=[N+]([O-])c1ccccc1O[C@@H]1O[C@H](CO)[C@@H](O)[C@H]1O [Example 9, 2-nitrophenyl β-D-ribofuranoside]
IAG NH rate (IAG-nucleoside hydrolase; pH 10.0): 0.15 min⁻¹
substrate quality in words (IU-nucleoside hydrolase): good substrates

Cc1cc(=O)oc2cc(O[C@@H]3O[C@H](CO)[C@@H](O)[C@H]3O)ccc12 [Example 10, 4-methylcoumarin-7-yl β-D-ribofuranoside]
IAG NH rate (IAG-nucleoside hydrolase; pH 10.0): 0.003 min⁻¹
substrate quality in words (IU-nucleoside hydrolase): good substrates

OC[C@H]1O[C@@H](Oc2cccnc2)[C@H](O)[C@@H]1O [Example 11, 3-pyridyl β-D-ribofuranoside]
IAG NH rate (IAG-nucleoside hydrolase; pH 10.0): 0.01 min⁻¹

OC[C@H]1O[C@@H](Oc2ccncc2)[C@H](O)[C@@H]1O [Example 12, 4-pyridyl β-D-ribofuranoside]
activity for the enzyme (T. vaginalis): 4 nmoles.min^−1.(mg protein)^−1
activity per cells (T. vaginalis): 74 nmoles.min^−1 per 10^−8 cells
activity per cells [1]: 210 nmoles.min^−1 per 10^8 cells
activity for the enzyme ([1]; protein by Lowry method): 31 nmoles.min^−1.(mg protein)^−1
substrate quality in words (IAG-nucleoside hydrolase): good substrates
substrate quality in words (IAG-nucleoside hydrolase; listed as 4-pyridyl riboside): substantially greater activity
substrate quality in words (IU-nucleoside hydrolase): good substrates
substrate quality in words (IU-nucleoside hydrolase; listed as 4-pyridyl riboside): lower activity

OC[C@H]1O[C@@H](Oc2cccc3ncccc23)[C@H](O)[C@@H]1O [Example 14, 5-quinolyl β-D-ribofuranoside]
IAG NH rate (IAG-nucleoside hydrolase; pH 8.0): 0.16 min⁻¹
IAG NH rate (IAG-nucleoside hydrolase; pH 10.0): <0.01 min⁻¹

NC(=O)c1ccc(O[C@@H]2O[C@H](CO)[C@@H](O)[C@H]2O)nc1 [Example 19, 3-carboxamido-6-pyridyl β-D-ribofuranoside]
substrate quality in words (IAG-nucleoside hydrolase): good substrates
IAG NH rate (IAG-nucleoside hydrolase; pH 8.0): >100 min⁻¹
IAG NH rate (IAG-nucleoside hydrolase; pH 10.0): 24 min⁻¹
substrate quality in words (IU-nucleoside hydrolase): good substrates
IU NH kcat (IU-nucleoside hydrolase; At pH 10, 30° C.): 141 s⁻¹
Km (IU-nucleoside hydrolase; At pH 10, 30° C.): 369 µM

O=Cc1ccc(O[C@@H]2O[C@H](CO)[C@@H](O)[C@H]2O)cc1 [Example 20, 4-formylphenyl β-D-ribofuranoside]
IAG NH rate (IAG-nucleoside hydrolase; pH 10.0): 0.01 min⁻¹

nitrophenylriboside 5-phosphate
kcat/Km ratio (AMP nucleosidase; kcat/Km for the nitrophenyl substrate to that for AMP): 3 × 10^−7
Km (AMP nucleosidase; [6]): 6250 µM
kcat (AMP nucleosidase; [6]): 0.0004 s⁻¹

β-D-ribofuranoside of Luminol [Example 15]
IAG NH rate (IAG-nucleoside hydrolase; pH 8.0): <0.01 min⁻¹
IAG NH rate (IAG-nucleoside hydrolase; pH 10.0): <0.03 min⁻¹
IU NH kcat (IU-nucleoside hydrolase; At pH 10, 30° C.): 163 s⁻¹
Km (IU-nucleoside hydrolase; At pH 10, 30° C.): 133 µM

B1: IAG-nucleoside hydrolase (Trypanosoma brucei brucei TREU927) (protein)
chain: MAKTVILDHDGNKDDFVAMILLLSNPKKVNLIGCICTDADCFVENGFDVTGKIMCAMHRLIKTPLFPIGKSTATAVNAFPTEWRFSAKNLDDMPFLNIVEDVALWEKLKPENEAHNGQQLLADLVMKSKEKVTVCVTGPLSNMAWCIEKYGEAFTSKVEECVIMGGAVDVGGNVFLPTTDGSAEWNIYWDPPAAKKVLCCPNIRCVLFSLDATNTVPVRSVDVKGFGAQNQYLLSQMVGTMWAMSTHEEILRDGDAYYAWDALTAAYILEPTIATLEPVALDVDVSKGKSEGRTPRASGEGKPCVHVARNPSKQMFHDLVFASTRVC
Km [2]: 529 µM
kcat [2]: 0.00317 s⁻¹
Km [3]: 306 µM
kcat [3]: 12 s⁻¹
Km [4]: 560 µM
kcat [4]: 0.82 s⁻¹
kcat/Km [4]: 1500 M⁻¹ s⁻¹

B2: Purine nucleoside phosphorylase (Bos taurus) (protein)
chain: MANGYTYEDYQDTAKWLLSHTEQRPQVAVICGSGLGGLVNKLTQAQTFDYSEIPNFPESTVPGHAGRLVFGILNGRACVMMQGRFHMYEGYPFWKVTFPVRVFRLLGVETLVVTNAAGGLNPNFEVGDIMLIRDHINLPGFSGENPLRGPNEERFGVRFPAMSDAYDRDMRQKAHSTWKQMGEQRELQEGTYVMLGGPNFETVAECRLLRNLGADAVGMSTVPEVIVARHCGLRVFGFSLITNKVIMDYESQGKANHEEVLEAGKQAAQKLEQFVSLLMASIPVSGHTG
notes: The E. coli and bovine spleen enzymes tested; from tissue; host or cells: bovine spleen
Km [5]: 224 µM
kcat [5]: 0.0002 s⁻¹
kcat/Km [5]: 0.89 M⁻¹ s⁻¹
